Where two headings read alike, the source gives them in different places.
How the values were obtained:
[1] = tested on: biosynthetic pathway of cholesterol; assay: inhibitory effect in biosynthetic pathway of cholesterol; format: biochemical; settings: 10^-4 M; rat liver microsomes and soluble fraction; 90 min, 100 µM
Method: Test for determining inhibitory effect in biosynthetic pathway of cholesterol
Each one of the test compounds was added to rat liver microsomes fraction (containing 0.2 mg of protein) and soluble fraction (containing 2 mg of protein), then the volume of the mixture was adjusted to 100 microliters by adding 0.1 M-potassium phosphate buffer solution (pH 7.4), then this mixture was incubated at 37° C. for 10 minutes.
After the incubation, the reaction was started by adding 200 microliters of a solution containing 1 mM ATP, 10 mM glucose-1-phosphate, 6 mM glutathione, 6 mM MgCl2, […], 0.25 mM […], 0.25 mM NADP, and 1 mM [1-^14 C] sodium acetate (3.0 mCi/mM).
The whole mixture was incubated at 37° C. for 90 minutes, then the reaction was terminated by adding […] of 15%-KOH (a 95% ethanol solution), next 2 mg of cholesterol was added thereto, saponified at 75° C. for 1 hour, and cholesterol was extracted with petroleum ether, the extract was concentrated to dryness. To the residue thus obtained was added with 2.5 ml of a mixture of acetone-diethyl ether (1:1) and 2.5 ml of 1%-digitonin (a 50% ethanol solution), then this solution was allowed to stand for 1 hour in cooling condition by using ice-water to precipitate cholesterol. The precipitate was washed with acetone, a mixture of acetonediethyl ether (1:1) and diethyl ether in this order, then the radioactivity of the residue was measured by using a liquid scintillation counter.
(§1) Control test was also conducted by the procedures similar to those mentioned above in the test group, except that each one of the test compounds was not used.
Inhibitory effect in biosynthetic pathway of cholesterol performed by each one of the test compounds was calculated, in terms of inhibitory ratio (%), from the formula on the basis of the radioactivity of the control group as follows: [formula] (wherein
[c] is a radioactivity of the control group, and
[d] is a radio activity of the test group).

[2] = tested on: Triton WR-1339-induced hyperlipidemia in rat; assay: antilipotropic effect in Triton WR-1339-induced hyperlipidemia in rat; format: in vivo, Wistar-strain male rats; settings: 50 mg/kg oral, vs control
Source text: Wistar-strain male rats of 5-9 week age were used as test animals. One test group consisting of six (6) rats.
[a] is a determined value obtained from the control group, and
[b] is a determined value obtained from the test group).

[3] = tested on: acyl-CoA:cholesterol acyltransferase (ACAT); assay: inhibitory effect in the enzymatic activities of acyl-CoA:cholesterol acyltransferase (ACAT); format: biochemical; settings: rat liver microsomes, 2 min; for Inhibitory effect to ACAT (inhibitory ratio), Table 5: head prints 10^14 M; for Inhibitory effect to ACAT (inhibitory ratio): 10^-4 M, 100 µM
Method: Test for determining inhibitory effect in the enzymatic activities of acyl-CoA:cholesterol acyltranferase (ACAT)
50 Microliters of each one of the test compounds was added to rat liver microsomes fraction (containing 0.4 mg of protein) of which volume was adjusted to 150 microliters by adding 0.15 M-potassium phosphate buffer solution (pH 7.4), then the mixture was incubated at 37° C. for 10 minutes. After the incubation, the reaction was started by adding 50 microliters of 0.15 M-potassium phosphate buffer solution (pH 7.4) containing 18 nM [1-^14 C] oleoyl-CoA (10 mCi/mM) and 0.6 mg BSA (bovine serum albumin) at 37° C. for 2 minutes. The reaction was terminated by adding 1 ml of ethanol, then 4 ml of n-hexane was added and shaken, then the n-hexane layer (upper layer) was concentrated to the volume of 3 ml under nitrogen gas stream, thus obtained cholesteryl oleate was isolated by means of a silica gel thin chromatography [developing solvent=petroleum ether: diethyl ether (95:5)] and the radioactivity was measured by using a liquid scintillation counter.
as §1
Inhibitory effect in the enzymatic activities of acyl-CoA:cholesterol acyltransferase (ACAT) performed by each one of the test compounds was calculated, in terms of inhibitory ratio (%), from the formula on the basis of the radioactivity of the control group as follows: [formula] (wherein
[e] is a radioactivity of the control group, and
[f] is a radioactivity of the test group).

[4] = tested on: Streptozotocin-induced diabetes in rat; assay: serum lipids lowering effect to Streptozotocin-induced diabetes in rat; format: in vivo, Wistar-strain male rats; settings: 4 hours after 25 mg/kg oral, Streptozocin 100 mg/kg tail vein
Method: Test for determining serum lipids lowering effect to Streptozotocin-induceddiabetes in rat
Wistar-strain male rats of 7 week age were used as test animals. One test group consisting of six (6) rats. 100 Milligrams/kg of Streptozocin was administered to the tail vein of the test rat, then 4th day after the administration with Streptozocin, 25 mg/kg of each of the test compounds which was suspended in 0.5%-CMC-Na aqueous solution was orally administered to the rat. Similar to the test group, to each of six (6) rats in control group was administered with Streptozocin, and further orally administered with 0.5%-CMC-Na aqueous solution without containing each of the test compounds.
4 Hours after the administration of each of the test compounds, the blood sample was taken from each of the test rats, and serum triglycerids was measured by using a test reagent of Triglyceride G-Test Wako (manufacturedby Wako Pure Chemicals, Co., Ltd.).

[5] = large amount for a long period; animal test; cited from earlier work
[6] = tested on: plasma high density lipoprotein cholesterol (HDLC); assay: increasing rate of plasma high density lipoprotein cholesterol (HDLC) concentration; format: in vivo, male Wistar rats; settings: 300 mg/kg/day oral for 2 days; rat; vs control
Method: Increasing rate (%) of plasma high density lipoportein cholesterol (HDLC) concentration which is performed by a carboxamide compound of the general formula (I) of the present invention was conducted as follows.
Seven-week-old male Wistar rats were used.
The test compound was orally administered for 2 days at a daily dose of 300 mg/kg body weight to each of six (6) rats in test group. The dosing vehicle was 0.5% sodium carboxylmethylcellulose solution, and the dosing volume was 5 ml/kg body weight.
Similar to the procedures taken to the rats in the test group, to each one of six (6) rats in control group was orally administered 0.5% sodium carboxymethylcelluose solution only.
On day 2, after fasting for 20 hours, blood was drawn from the jagular sinus with a heparinized syringe. Plasma was obtained by centrifugation.
Plasma HDLC was determined after precipitation of other lipid fraction with heparin and Ca^2+ by using HDL-C Kit-N (manufactured by Hihon Shoji Kabushiki Kaisha).
Increasing rate (%) of plasma HDLC concentration performed by a test compound was calculated from the formula as follows: [formula]

[7] = 24 hours after Triton WR-1339 (400 mg/kg, tail vein)
[8] = 48 hours after Triton WR-1339 (400 mg/kg, tail vein)
[9] = 24 hours after Triton WR-1339 (400 mg/kg, tail vein), read-out: lowering ratio of serum triglycerides, 24 hours after Triton WR-1339
[10] = 24 hours after Triton WR-1339 (400 mg/kg, tail vein), read-out: lowering ratio of total serum cholesterol, 24 hours after Triton WR-1339
[11] = 48 hours after Triton WR-1339 (400 mg/kg, tail vein), read-out: lowering ratio of serum triglycerides, 48 hours after Triton WR-1339
[12] = 48 hours after Triton WR-1339 (400 mg/kg, tail vein), read-out: lowering ratio of total serum cholesterol, 48 hours after Triton WR-1339

Molecule	Inhibitory ratio of cholesterol biosynthesis [1]	Inhibitory effect to ACAT (inhibitory ratio), Table 5 [3]	Inhibitory effect to ACAT (inhibitory ratio) [3]	also measured
4-diethoxyphosphinoylmethyl-N-(4-bromo-2-cyanophenyl)benzamide [Test compound No. 71]	56.6%	79.2%	–	lowering ratio of serum triglycerides, 24 hours after Triton WR-1339 [2, 7]: 85.3%; lowering ratio of total serum cholesterol, 24 hours after Triton WR-1339 [2, 7]: 51.6%; lowering ratio of serum triglycerides, 48 hours after Triton WR-1339 [2, 8]: 95.9%; lowering ratio of total serum cholesterol, 48 hours after Triton WR-1339 [2, 8]: 67.9%
CCC(C)(Oc1ccc(C2(c3ccc(OC(C)(CC)C(=O)O)cc3)CCCCC2)cc1)C(=O)O (centres unmarked) [Clinofibrate, reference compound]	–	–	–	inhibition in vivo at 50 mg/kg [2, 9]: 13.6%; inhibition in vivo at 50 mg/kg [2, 10]: 9.8%; inhibition in vivo at 50 mg/kg [2, 11]: 1.1%; inhibition in vivo at 50 mg/kg [2, 12]: 1.9%; Serum triglyceride [4]: 2,067 mg/dl
CCOC(=O)C(C)(C)Oc1ccc(Cl)cc1 [Clofibrate]	–	–	–	formation of hepatic tumor [5]: the formation of hepatic tumor was observed
CCOP(=O)(Cc1ccc(C(=O)Nc2ccc(Br)cc2)cc1)OCC [compound 8]	–	–	–	inhibition in vivo at 50 mg/kg [2, 9]: 86.8%; inhibition in vivo at 50 mg/kg [2, 10]: 52.2%; inhibition in vivo at 50 mg/kg [2, 11]: 92.5%; inhibition in vivo at 50 mg/kg [2, 12]: 63.6%; Serum triglyceride [4]: 471 mg/dL
CCOP(=O)(Cc1ccc(C(=O)N(Cc2ccccc2)c2ccc([N+](=O)[O-])cc2)cc1)OCC [compound 10]	75.6%	–	69.4%	inhibition in vivo at 50 mg/kg [2, 9]: 26.9%; inhibition in vivo at 50 mg/kg [2, 10]: 0%; inhibition in vivo at 50 mg/kg [2, 11]: 68.7%; inhibition in vivo at 50 mg/kg [2, 12]: 16.1%
CC(C)OP(=O)(Cc1ccc(C(=O)NCCc2ccccc2)cc1)OC(C)C [compound 11]	67.4%	83.3%	–	inhibition in vivo at 50 mg/kg [2, 9]: 0%; inhibition in vivo at 50 mg/kg [2, 10]: 13.5%; inhibition in vivo at 50 mg/kg [2, 11]: 56.8%; inhibition in vivo at 50 mg/kg [2, 12]: 32.6%
CCCCCCNC(=O)c1ccc(C(C)P(=O)(OC(C)C)OC(C)C)cc1 (centres unmarked) [compound 26]	67.4%	88.9%	–	–
CCOP(=O)(Cc1ccc(C(=O)Nc2cccc(C(F)(F)F)c2)cc1)OCC [compound 27]	36.2%	39.5%	–	–
O=C(Nc1c(Cl)cccc1Cl)c1ccc(CP(=O)(Oc2ccccc2)Oc2ccccc2)cc1 [compound 29]	35.8%	73.9%	–	–
CCOP(=O)(Cc1ccc(C(=O)NCCC(c2ccccc2)c2ccccc2)cc1)OCC [compound 31]	65.4%	87.7%	–	–
CCOP(=O)(Cc1ccc(C(=O)N(c2ccccc2)C(C)C)cc1)OCC [compound 32]	36.4%	20.1%	–	–
CCOP(=O)(Cc1ccc(C(=O)N(c2ccccc2)c2ccccc2)cc1)OCC [compound 36]	61.1%	63.1%	–	–
CCOP(=O)(Cc1ccc(C(=O)N(Cc2ccccc2F)c2ccccc2)cc1)OCC [compound 41]	84.2%	–	84.0%	–
CCOP(=O)(Cc1ccc(C(=O)N(Cc2ccccc2)c2cccc(C(F)(F)F)c2)cc1)OCC [compound 50]	78.2%	–	84.8%	–
CCOP(=O)(Cc1ccc(C(=O)N(Cc2ccccc2)c2cc(OC)c(OC)c(OC)c2)cc1)OCC [compound 52]	65.6%	–	60.5%	–
CCOP(=O)(Cc1ccc(C(=O)N2CCN(c3ccc(Cl)cc3)CC2)cc1)OCC [compound 58]	58.4%	–	56.6%	–
CCCCCCNC(=O)c1ccc(C(C)P(=O)(OCC)OCC)cc1 (centres unmarked) [compound 63]	58.9%	–	88.9%	–
CCOP(=O)(Cc1cccc(C(=O)Nc2ccccc2)c1)OCC [compound 64]	–	37.6%	–	–
CCOP(=O)(Cc1ccc(C(=O)N(Cc2ccccc2)c2ccccc2)cc1)OCC [compound 65]	–	–	87.7%	–
CCOP(=O)(Cc1ccc(C(=O)Nc2ccccc2C(=O)O)cc1)OCC [compound 66]	–	–	26.0%	–
CCOP(=O)(Cc1ccc(C(=S)Nc2ccccc2)cc1)OCC [compound 70]	–	–	39.4%	–
CCOP(=O)(Cc1ccc(C(=O)Nc2ccc(Br)cc2C#N)cc1)OCC [compound 71]	–	–	–	Increasing rate (%) of high density lipids concentration in the serum (plasma HDLC) [6]: 193%
CCOP(=O)(Cc1ccc(C(=O)Nc2ccc(Cl)cc2C#N)cc1)OCC [compound 72]	–	–	–	Increasing rate (%) of high density lipids concentration in the serum (plasma HDLC) [6]: 196%
CCOP(=O)(Cc1ccc(C(=O)Nc2ccc(C#N)cc2Cl)cc1)OCC [compound 73]	–	–	–	Increasing rate (%) of high density lipids concentration in the serum (plasma HDLC) [6]: 187%
CCOP(=O)(Cc1ccc(C(=O)Nc2ccc(I)cc2C#N)cc1)OCC [compound 74]	–	–	–	Increasing rate (%) of high density lipids concentration in the serum (plasma HDLC) [6]: 187%
CCOP(=O)(Cc1ccc(C(=O)Nc2ccc(C#N)cc2Br)cc1)OCC [compound 75]	–	–	–	Increasing rate (%) of high density lipids concentration in the serum (plasma HDLC) [6]: 222%
CCOP(=O)(Cc1ccc(C(=O)Nc2ccc(Br)c(C#N)c2)cc1)OCC [compound 76]	–	–	–	Increasing rate (%) of high density lipids concentration in the serum (plasma HDLC) [6]: 111%
CCOP(=O)(Cc1ccc(C(=O)Nc2ccc(C#N)cc2I)cc1)OCC [compound 77]	–	–	–	Increasing rate (%) of high density lipids concentration in the serum (plasma HDLC) [6]: 184%

— US5081112A, “Method for treating hyperlipidemia” (Otsuka Pharmaceutical Factory Inc., priority 1986, dated 1992)
